From patent US6169181A, “Compounds useful to treat retroviral infections” (Pharmacia & Upjohn Company, priority 1998, dated 2001)
“And” between values parts separate entries of the source, which are not always exact repeats. Identical values can stand only once. Like-named read-outs stand apart in the source and are kept apart here.

Key:
[1] = biological target: T1, single chain tethered (tandem) HIV protease (HIV-1 M:B_HXB2R, UniProt P04585); assay: Tandem HIV protease assay; type: biochemical; conditions: read-out: FITC KI; Table II; enzyme HIV1TANDEM
T1 construct: purified enzyme, FITC/biotin substrate assay
Procedure: In the enzyme inhibition assay described above, the sensitivity of Ki value determination is in part limited by the ability to continue to lower the enzyme concentration for compounds with high binding affinity. To prevent de-dimerization at low enzyme concentration, a tandemly linked enzyme is prepared in which the two monomers are covalently linked by an appropriate stretch of amino acid residues. Using the latter enzyme, the sensitivity of the inhibition assay is improved since much lower enzyme concentration can be utilized, as compared to the condition using the wild-type enzyme.
The starting inhibitor concentrations are determined based on preliminary enzyme inhibition screening results which estimate the expected potency of the inhibitor. Inhibitor concentrations are then prepared using the Biomek 1000 (Beckman) and the Quadra 96 (Tomtec). Substrate (biotinylated at the amino terminal arginine and fluorescently labeled with fluorescein at the carboxyl terminal lysine), inhibitor and the tandem enzyme are allowed to react in solution at pH 5.5 (buffers identical to those used with the native dimeric enzyme) in the dark for 96 hours. Streptavidin coated polystyrene beads are added to stop the reaction. The labeled cleavage product is separated from unreacted substrate via filtration. Residual fluorescence is quantitated with the Idexx SM2000 (Idexx) and the resulting data are analyzed using the NLLSF program.

HIV-1 protease [2] = biological target: T2, HIV-1 protease (Human immunodeficiency virus type 1 group M subtype B, UniProt P04585); assay: biochemical; conditions: read-out: Protease % Inhib
Method in brief: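 Percent inhibition came from fluorescence of FITC-tagged cleavage product, separated by filtration from uncleaved substrate captured on streptavidin-coated beads. The enzyme (10 μl of 0.1 μM) and compound acted on a biotin/FITC dual-labelled peptide for one hour at room temperature in the dark. The reaction ran in 0.1 M sodium acetate, pH 5.5, with 1.0 M NaCl and 0.05% NP-40.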

HIV-1 protease [3] = biological target: T2, HIV-1 protease; assay: biochemical; conditions: read-out: HIV Protease FITC Assay Ki
Method in brief: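 Biotinylated, FITC-labelled peptide substrate cleaved in 0.1 M sodium acetate pH 5.5, 1.0 M NaCl, 0.05% NP-40, room temperature. Filtered labelled product read by fluorescence; nonlinear least-squares fit.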

Structure (SMILES) | Ki [1] [nM] | inhibition at 0.123 µM (HIV-1 protease [2]; Table I, Dose 0.123 μM) [%] | inhibition at 0.37 µM (HIV-1 protease [2]; Table I, Dose 0.370 μM) [%] | inhibition at 1.1 µM (HIV-1 protease [2]; Table I, Dose 1.100 μM) [%] | inhibition at 3.3 µM (HIV-1 protease [2]; Table I, Dose 3.300 μM) [%] | inhibition at 10 µM (HIV-1 protease [2]; Table I, Dose 10.000 μM) [%] | inhibition at 30 µM (HIV-1 protease [2]; Table I, Dose 30.000 μM) [%] | Ki (HIV-1 protease [3]; Table I) | inhibition at 0.123 µM (HIV-1 protease [2]) [%] | inhibition at 0.37 µM (HIV-1 protease [2]) [%] | inhibition at 1.1 µM (HIV-1 protease [2]) [%] | inhibition at 3.3 µM (HIV-1 protease [2]) [%] | inhibition at 10 µM (HIV-1 protease [2]) [%] | inhibition at 30 µM (HIV-1 protease [2]) [%] | Ki (HIV-1 protease [3]) [nM]
CC(C)(C)C(C1=C(O)CC(CCc2ccccc2)(CCC(F)(F)F)OC1=O)c1cccc(NS(=O)(=O)c2ccc(C#N)cn2)c1 (single isomer, unassigned) [Example 266, 5-cyano-N-[3-(R or S)-[1-[5,6-dihydro-4-hydroxy-2-oxo-6-(2-phenethyl)-6-(R or S)-(3,3,3-trifluoropropyl)-2H-pyran-3-yl]-2,2-dimethylpropyl]phenyl]-2-pyridinesulfonamide] | 0.033 | – | – | – | – | – | – | – | – | – | – | – | – | – | –
CC(C)(C)C(C1=C(O)CC(CCc2ccccc2)(CCC(F)(F)F)OC1=O)c1cccc(NS(=O)(=O)c2ccc(N)cn2)c1 (single isomer, unassigned) [Example 268, 5-amino-N-[3-(R or S)-[1-[5,6-dihydro-4-hydroxy-2-oxo-6-(2-phenethyl)-6-(R or S)-(3,3,3-trifluoropropyl)-2H-pyran-3-yl]-2,2-dimethylpropyl]phenyl]-2-pyridinesulfonamide] | 0.835 | – | – | – | – | – | – | – | – | – | – | – | – | – | –
O=c1oc2c(c(O)c1C(c1cccc(NS(=O)(=O)c3ccccn3)c1)C1CC1)CCCCCC2 (stereo not shown) [Example 239] | – | 83.6 | 96.6 | 98.4 | 99.5 | 103 | 108 | 1.44 nM and 0.86 nM | – | – | – | – | – | – | –
CCCC1(CCc2ccccc2)CC(O)=C(C(c2cccc(NS(=O)(=O)c3ccc(C#N)cn3)c2)C(C)(C)C)C(=O)O1 (stereo not shown) [Example 251, 5-Cyano-N-[3-(1-[5,6-dihydro-4-hydoxy-2-oxo-6-(2-phenethyl)-6-propyl-2H-pyran-3-yl]-2,2-dimethylpropyl)phenyl]-2-pyridinesulfonamide] | – | – | – | – | – | – | – | – | 70.8 | 90.6 | 97.7 | 94.5 | 94.2 | 93.2 | 1.9
CCCC1(CCc2ccc(F)cc2)CC(O)=C(C(c2cccc(NS(=O)(=O)c3cn(C)cn3)c2)C(C)(C)C)C(=O)O1 (stereo not shown) [Example 252, N-[3-{1-(4-Hydroxy-5,6-dihydro-2-oxo-6-(2-(4-fluorophenyl)ethyl)-6-propyl-2H-pyran-3-yl)-2,2-dimethylpropyl}phenyl]-1-methyl-1H-imidazole-4-sulfonamide] | – | 70 | 85 | 89.7 | 101 | 96.2 | 91.4 | 1.6 nM | – | – | – | – | – | – | –
Cn1cnc(S(=O)(=O)Nc2cccc(C(C3=C(O)CC(CCC4CC4)(CCC4CC4)OC3=O)C(C)(C)C)c2)c1 (stereo not shown) [Example 264, N-[3-(1-[6,6-Bis-(2-cyclopropyl-ethyl)-5,6-dihydro-4-hydroxy-2-oxo-2H-pyran-3-yl]-2,2-dimethyl-propyl)phenyl]-1-methyl-1H-imidazole-4-sulfonamide] | – | 67.2 | 75 | 67.7 | 57.6 | 53.7 | 64.6 | 3.7 nM | – | – | – | – | – | – | –
CC(C)(C)C(C1=C(O)CC(CCC2CC2)(CCC2CC2)OC1=O)c1cccc(NS(=O)(=O)c2ccc(C#N)cn2)c1 (stereo not shown) [Example 265, N-[3-(1-[6,6-Bis-(2-cyclopropyl-ethyl)-5,6-dihydro-4-hydroxy-2-oxo-2H-pyran-3-yl]-2,2-dimethyl-propyl)phenyl]-5-cyano-2-pyridinesulfonamide] | – | 33.2 | 56.3 | 57.8 | 63.7 | 80.3 | 85.6 | 1 nM | – | – | – | – | – | – | –
